Source: patent US9192621B2, “Esters and malonates of SATE prodrugs” (IDENIX PHARMACEUTICALS LLC, priority 2012, dated 2015)
pEC50: −log10 of the molar value.

What was measured:
HCV genotype 1b replicon = test: HCV replicon assay (luciferase reporter, Zluc cells); type: cell-based; details: Huh-7-derived Zluc cells, 72 hours of incubation
[1] = Cytotoxicity evaluation, CellTiter-Blue Cell Viability Assay; type: cell-based; details: human, Zluc cells (HCV replicon cells)
Zluc cells = test: as above; type: cell-based; details: read-out: HCV Replicon CC50
[2] = Stability in simulated gastric and intestinal fluids; type: in vitro ADME; details: 100 μM, 2 hours at 37° C., percent of the peak area observed at time zero
Method: Stability in simulated gastric and intestinal fluids: Simulated gastric and intestinal fluids containing pepsin and pancreatin respectively were prepared according to the U.S. Pharmacopoeia USP291 procedure (www.pharmacopeia.cn/v29240/usp29nf24s0_ris1s126.html). Test compound (final concentration 100 μM) was incubated in duplicate in the appropriate fluid for 2 hours at 37° C. The samples were quenched with 200 μl cold acetonitrile, vortexed for 30 seconds and then centrifuged at 16,100 g for 10 min. The supernatants were analyzed by HPLC on a C-18 column with UV detection at 252 nm. The time 0 samples were prepared by adding SGF or SIF fluid to the quenching solvent followed by the test compound. Stability of the compound was determined by peak area for the test compound after incubation and calculated as percent of the peak area observed at time zero.

| SMILES | pEC50 (HCV genotype 1b replicon; Hepatitis C virus) | CC50 at 72 h [1] [µM] | other results |
| --- | --- | --- | --- |
| CCOc1nc(N)nc2c1ncn2[C@@H]1O[C@H](COP(=O)(NCc2ccccc2)OCCSC(=O)C(C)(C)COC(C)=O)[C@@H](O)[C@@]1(C)F (single isomer, unassigned) [Compound 101 Diastereomer 1] | ≥ 6.60 | ≤ 50 | – |
| CCOc1nc(N)nc2c1ncn2[C@@H]1O[C@H](COP(=O)(NCc2ccccc2)OCCSC(=O)C(C)(C)COC(C)=O)[C@@H](O)[C@@]1(C)F (single isomer, unassigned) [Compound 101 Diastereomer 2] | – | – | pEC50 (HCV genotype 1b replicon): ≥ 6.60 |
| CCCCCC(=O)OCC(C)(C)C(=O)SCCOP(=O)(NCc1ccccc1)OC[C@H]1O[C@@H](n2cnc3c(OCC)nc(N)nc32)[C@](C)(F)[C@@H]1O (single isomer, unassigned) [Compound 103 Diastereomer 1] | ≥ 6.60 | > 50 | – |
| CCCCCC(=O)OCC(C)(C)C(=O)SCCOP(=O)(NCc1ccccc1)OC[C@H]1O[C@@H](n2cnc3c(OCC)nc(N)nc32)[C@](C)(F)[C@@H]1O (single isomer, unassigned) [Compound 103 Diastereomer 2] | – | – | CC50 (Zluc cells): > 50 µM |
| CCOc1nc(N)nc2c1ncn2[C@@H]1O[C@H](COP(=O)(NCc2ccccc2)OCCSC(=O)C(C)(C)C(=O)OC(C)C)[C@@H](O)[C@@]1(C)F (single isomer, unassigned) [Compound 105 Diastereomer 1] | ≥ 6.60 | > 50 | – |
| CCOc1nc(N)nc2c1ncn2[C@@H]1O[C@H](COP(=O)(NCc2ccccc2)OCCSC(=O)C(C)(C)C(=O)OC(C)C)[C@@H](O)[C@@]1(C)F (single isomer, unassigned) [Compound 105 Diastereomer 2] | – | – | CC50 (Zluc cells): > 50 µM |
| CCOc1nc(N)nc2c1ncn2[C@@H]1O[C@H](COP(=O)(NCc2ccccc2)OCCSC(=O)C(C)(C)COC(C)=O)[C@@H](O)[C@@]1(C)F (stereo partly drawn) [Compound 101] | ≥ 6.60 | ≤ 50 | – |
| CCCC(=O)OCC(C)(C)C(=O)SCCOP(=O)(NCc1ccccc1)OC[C@H]1O[C@@H](n2cnc3c(OCC)nc(N)nc32)[C@](C)(F)[C@@H]1O (stereo partly drawn) [Compound 102] | ≥ 6.60 | ≤ 50 | – |
| CCCCCC(=O)OCC(C)(C)C(=O)SCCOP(=O)(NCc1ccccc1)OC[C@H]1O[C@@H](n2cnc3c(OCC)nc(N)nc32)[C@](C)(F)[C@@H]1O (stereo partly drawn) [Compound 103] | ≥ 6.60 | > 50 | – |
| CCOc1nc(N)nc2c1ncn2[C@@H]1OC(COP(=O)(NCc2ccccc2)OCCSC(=O)C(C)(C)COC(=O)C(C)C)[C@@H](O)[C@@]1(C)F (stereo partly drawn) [Compound 104] | ≥ 6.60 | ≤ 50 | – |
| CCOc1nc(N)nc2c1ncn2[C@@H]1O[C@H](COP(=O)(NCc2ccccc2)OCCSC(=O)C(C)(C)C(=O)OC(C)C)[C@@H](O)[C@@]1(C)F (stereo partly drawn) [Compound 105] | ≥ 6.60 | > 50 | – |
| CC(=O)OCC(C)(C)C(=O)SCCOP(=O)(NCc1ccccc1)OCC1O[C@@H](n2cnc3c(=O)[nH]c(N)nc32)[C@](C)(O)[C@@H]1O (stereo partly drawn) [Compound 106] | ≥ 6.60 | ≤ 50 | – |
| CCCC(=O)OCC(C)(C)C(=O)SCCOP(=O)(NCc1ccccc1)OCC1O[C@@H](n2cnc3c(=O)[nH]c(N)nc32)[C@](C)(O)[C@@H]1O (stereo partly drawn) [Compound 107] | ≥ 6.60 | ≤ 50 | Stability SGF ([2]; simulated gastric fluid containing pepsin): +++ (50<+++<100); Stability SIF ([2]; simulated intestinal fluid containing pancreatin): + (+≦25) |
| CCCCCC(=O)OCC(C)(C)C(=O)SCCOP(=O)(NCc1ccccc1)OCC1O[C@@H](n2cnc3c(=O)[nH]c(N)nc32)[C@](C)(O)[C@@H]1O (stereo partly drawn) [Compound 108] | ≥ 6.60 | ≤ 50 | – |
